Source: patent publication US12024510B2, “Pyrazolopyridine-diamides, their use as insecticide and processes for preparing the same” (PI INDUSTRIES LTD., priority 2017, dated 2024)

What was measured:
Type in all cases: in vivo
Plutella xylostella = assay: whole plant or invertebrate; conditions: foliar, cabbage leaf dip, second instar larvae, dead and moribund combined, 72 h after release
Summary of the method: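 Leaf-dip bioassay: second-instar larvae, singly, fed on cabbage leaves dipped 10 s in test dispersion (bead-milled, diluted with 0.01% Triton-X to test concentration) and dried 20 min. Held at 25 °C, 70% RH; % mortality counts dead and moribund at 72 h.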

Helicoverpa armigera = Helicoverpa armigera diet incorporation method; conditions: third instar larvae, dead and moribund combined, 96 h after release
Summary of the method: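 Third-instar larvae, starved, were placed singly on diet pieces containing test dispersion (bead-milled in surfactant, particles under 2 μm, 500 ppm stock then diluted). Trays kept at 25° C. and 70% RH; mortality counted at 96 h, moribund larvae counted with dead.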

Spodoptera litura = Spodoptera litura diet incorporation method; conditions: third instar larvae, dead and moribund combined, 96 h after release
Summary of the method: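 Compound milled to <2 μm average particle size in surfactant, dispersed in water (500 ppm stock dispersion), then mixed into semi-synthetic diet at ~50° C. One starved third-instar larva per diet cell, 25° C, 70% RH; percent mortality (dead plus moribund) scored at 96 h.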

Measured: mortality at 300 ppm

CCCCNC(=O)c1c(NC(=O)c2cc(Br)nn2-c2ncccc2Cl)c(Cl)cc2ccnn12 [Compound 139, 6-(3-bromo-1-(3-chloropyridin-2-yl)-1H-pyrazole-5-carboxamido)-N-butyl-5-chloropyrazolo[1,5-a]pyridine-7-carboxamide]
> 70%: all assays above

O=C(Nc1c(Cl)cc2ccnn2c1C(=O)NCC1CC1)c1cc(Br)nn1-c1ncccc1Cl [Compound 140, 6-(3-bromo-1-(3-chloropyridin-2-yl)-1H-pyrazole-5-carboxamido)-5-chloro-N-(cyclopropylmethyl)pyrazolo[1,5-a]pyridine-7-carboxamide]
> 70%: all assays above

C#CCNC(=O)c1c(NC(=O)c2cc(Br)nn2-c2ncccc2Cl)c(Cl)cc2ccnn12 [Compound 141, 6-(3-bromo-1-(3-chloropyridin-2-yl)-1H-pyrazole-5-carboxamido)-5-chloro-N-(prop-2-yn-1-yl)pyrazolo[1,5-a]pyridine-7-carboxamide]
> 70%: all assays above

CNC(=O)c1c(NC(=O)c2cc(Br)nn2-c2ncccc2Cl)c(Cl)cc2ccnn12 [Compound 148, 6-(3-bromo-1-(3-chloropyridin-2-yl)-1H-pyrazole-5-carboxamido)-5-chloro-N-methylpyrazolo[1,5-a]pyridine-7-carboxamide]
> 70%: all assays above

CCCNC(=O)c1c(NC(=O)c2cc(Br)nn2-c2ncccc2Cl)c(Cl)cc2ccnn12 [Compound 151, 6-(3-bromo-1-(3-chloropyridin-2-yl)-1H-pyrazole-5-carboxamido)-5-chloro-N-propylpyrazolo[1,5-a]pyridine-7-carboxamide]
> 70%: all assays above

CNC(=O)c1c(NC(=O)c2cc(Cn3nnc(C(F)(F)F)n3)nn2-c2ncccc2Cl)c(Cl)cc2ccnn12 [Compound 153, 5-chloro-6-(1-(3-chloropyridin-2-yl)-3-((5-(trifluoromethyl)-2H-tetrazol-2-yl)methyl)-1H-pyrazole-5-carboxamido)-N-methylpyrazolo[1,5-a]pyridine-7-carboxamide]
> 70%: all assays above

CCNC(=O)c1c(NC(=O)c2cc(Cn3nnc(C(F)(F)F)n3)nn2-c2ncccc2Cl)c(Cl)cc2ccnn12 [Compound 154, 5-chloro-6-(1-(3-chloropyridin-2-yl)-3-((5-(trifluoromethyl)-2H-tetrazol-2-yl)methyl)-1H-pyrazole-5-carboxamido)-N-ethylpyrazolo[1,5-a]pyridine-7-carboxamide]
> 70%: all assays above

CCNC(=O)c1c(NC(=O)c2cc(Br)nn2-c2ncccc2Cl)ccc2ccnn12 [Compound 157, 6-(3-bromo-1-(3-chloropyridin-2-yl)-1H-pyrazole-5-carboxamido)-N-ethylpyrazolo[1,5-a]pyridine-7-carboxamide]
> 70%: all assays above

CNC(=O)c1c(NC(=O)c2cc(C(F)(F)F)nn2-c2ncccc2Cl)c(Cl)cc2ccnn12 [Compound 162, 5-chloro-6-(1-(3-chloropyridin-2-yl)-3-(trifluoromethyl)-1H-pyrazole-5-carboxamido)-N-methylpyrazolo[1,5-a]pyridine-7-carboxamide]
> 70%: all assays above

CNC(=O)c1c(NC(=O)c2cc(Cn3nnc(C(F)(F)F)n3)nn2-c2ncccc2Cl)c(C)cc2ccnn12 [Compound 166, 6-(1-(3-chloropyridin-2-yl)-3-((5-(trifluoromethyl)-2H-tetrazol-2-yl)methyl)-1H-pyrazole-5-carboxamido)-N,5-dimethylpyrazolo[1,5-a]pyridine-7-carboxamide]
> 70%: all assays above

CCNC(=O)c1c(NC(=O)c2cc(Cn3nnc(C(F)(F)F)n3)nn2-c2ncccc2Cl)c(C)cc2ccnn12 [Compound 167, 6-(1-(3-chloropyridin-2-yl)-3-((5-(trifluoromethyl)-2H-tetrazol-2-yl)methyl)-1H-pyrazole-5-carboxamido)-N-ethyl-5-methylpyrazolo[1,5-a]pyridine-7-carboxamide]
> 70%: all assays above

Cc1cc2ccnn2c(C(=O)NC(C)(C)C)c1NC(=O)c1cc(Cn2nnc(C(F)(F)F)n2)nn1-c1ncccc1Cl [Compound 170, N-(tert-butyl)-6-(1-(3-chloropyridin-2-yl)-3-((5-(trifluoromethyl)-2H-tetrazol-2-yl)methyl)-1H-pyrazole-5-carboxamido)-5-methylpyrazolo[1,5-a]pyridine-7-carboxamide]
> 70%: all assays above

COCC(C)(C)NC(=O)c1c(NC(=O)c2cc(Br)nn2-c2ncccc2Cl)c(C)cc2ccnn12 [Compound 174, 6-(3-bromo-1-(3-chloropyridin-2-yl)-1H-pyrazole-5-carboxamido)-N-(1-methoxy-2-methylpropan-2-yl)-5-methylpyrazolo[1,5-a]pyridine-7-carboxamide]
> 70%: all assays above

Cc1cc2ccnn2c(C(=O)NCC(F)F)c1NC(=O)c1cc(Br)nn1-c1ncccc1Cl [Compound 186, 6-(3-bromo-1-(3-chloropyridin-2-yl)-1H-pyrazole-5-carboxamido)-N-(2,2-difluoroethyl)-5-methylpyrazolo[1,5-a]pyridine-7-carboxamide]
> 70%: all assays above

Cc1cc2ccnn2c(C(=O)NC(C)C(F)(F)F)c1NC(=O)c1cc(Br)nn1-c1ncccc1Cl (stereo not drawn) [Compound 187, 6-(3-bromo-1-(3-chloropyridin-2-yl)-1H-pyrazole-5-carboxamido)-5-methyl-N-(1,1,1-trifluoropropan-2-yl)pyrazolo[1,5-a]pyridine-7-carboxamide]
> 70%: all assays above

Cc1cc2ccnn2c(C(=O)NCC2CCOCC2)c1NC(=O)c1cc(Br)nn1-c1ncccc1Cl [Compound 195, 6-(3-bromo-1-(3-chloropyridin-2-yl)-1H-pyrazole-5-carboxamido)-5-methyl-N-((tetrahydro-2H-pyran-4-yl)methyl)pyrazolo[1,5-a]pyridine-7-carboxamide]
> 70%: all assays above

Cc1cc2ccnn2c(C(=O)NC(C)(C)CO)c1NC(=O)c1cc(Br)nn1-c1ncccc1Cl [Compound 196, 6-(3-bromo-1-(3-chloropyridin-2-yl)-1H-pyrazole-5-carboxamido)-N-(1-hydroxy-2-methylpropan-2-yl)-5-methylpyrazolo[1,5-a]pyridine-7-carboxamide]
> 70%: all assays above

COc1cc(C(=O)Nc2c(C)cc3ccnn3c2C(=O)NC(C)(C)CO)n(-c2ncccc2Cl)n1 [Compound 197, 6-(1-(3-chloropyridin-2-yl)-3-methoxy-1H-pyrazole-5-carboxamido)-N-(1-hydroxy-2-methylpropan-2-yl)-5-methylpyrazolo[1,5-a]pyridine-7-carboxamide]
> 70%: all assays above

COc1cc(C(=O)Nc2c(C)cc3ccnn3c2C(=O)NCC2CCOCC2)n(-c2ncccc2Cl)n1 [Compound 201, 6-(1-(3-chloropyridin-2-yl)-3-methoxy-1H-pyrazole-5-carboxamido)-5-methyl-N-((tetrahydro-2H-pyran-4-yl)methyl)pyrazolo[1,5-a]pyridine-7-carboxamide]
> 70%: all assays above

COc1cc(C(=O)Nc2c(C)cc3ccnn3c2C(=O)NCC2CCCC2)n(-c2ncccc2Cl)n1 [Compound 203, 6-(1-(3-chloropyridin-2-yl)-3-methoxy-1H-pyrazole-5-carboxamido)-N-(cyclopentylmethyl)-5-methylpyrazolo[1,5-a]pyridine-7-carboxamide]
> 70%: all assays above

COc1cc(C(=O)Nc2c(C)cc3ccnn3c2C(=O)NCC(F)F)n(-c2ncccc2Cl)n1 [Compound 214, 6-(1-(3-chloropyridin-2-yl)-3-methoxy-1H-pyrazole-5-carboxamido)-N-(2,2-difluoroethyl)-5-methylpyrazolo[1,5-a]pyridine-7-carboxamide]
> 70%: all assays above

COc1cc(C(=O)Nc2c(C)cc3ccnn3c2C(=O)NC2CSC2)n(-c2ncccc2Cl)n1 [Compound 215, 6-(1-(3-chloropyridin-2-yl)-3-methoxy-1H-pyrazole-5-carboxamido)-5-methyl-N-(thietan-3-yl)pyrazolo[1,5-a]pyridine-7-carboxamide]
> 70%: all assays above
